Laboratory results taken from ChEMBL document CHEMBL4483862, “Open-source discovery of chemical leads for next-generation chemoprotective antimalarials” (2018).

System: Plasmodium berghei
Assay: Luciferase/luciferin-expressing antifolate-resistant parasites were used to infect a culture of HepG2 cells that were pre-incubated with compounds. Infected hepatocytes emit light due to the luciferase reaction. Assay results are presented as the percent inhibition of light emission compared to control. […]
Format: functional
Settings: sporozoite; for IC90: read-out: LUCIFERASE INFECTION ASSAY - IC90
[1] = read-out: LUCIFERASE INFECTION ASSAY - IC50

| SMILES | IC90 | IC50 [1] | also measured |
| --- | --- | --- | --- |
| Cc1c(C(=O)OC(C)C(=O)N2CCN(Cc3ccccc3)CC2)sc2nc3n(c(=O)c12)CCC3 (stereo unspecified) | > 10 µM | – | IC50 (PBLUC_HILL_SLOPE 12.6, PBLUC_R_SQUARED 0.201, read-out: LUCIFERASE INFECTION ASSAY - IC50): 9 µM |
| O=C(NC1CC1)c1ccc(CN(C(=O)Nc2cccc3ccccc23)C2CC2)cc1 | 4.41 µM | – | IC50 (PBLUC_HILL_SLOPE 14, PBLUC_R_SQUARED 0.411, read-out: LUCIFERASE INFECTION ASSAY - IC50): 3.77 µM |
| Cc1cc(C(=O)C(C)Sc2nnnn2C2CC2)c(C)n1-c1ccccc1 (stereo unspecified) | 7.24 µM | – | IC50 (PBLUC_HILL_SLOPE 0.896, PBLUC_R_SQUARED 0.762, read-out: LUCIFERASE INFECTION ASSAY - IC50): 0.623 µM |
| Cc1cc(CSc2ccccc2)ccc1NC(=O)Nc1ccccc1 | > 9.47 µM | – | IC50 (PBLUC_HILL_SLOPE 1.29, PBLUC_R_SQUARED 0.521, read-out: LUCIFERASE INFECTION ASSAY - IC50): 2.22 µM |
| Nc1nc(CNC(c2ccccc2)c2ccc(Cl)cc2)nc(Nc2ccccc2)n1 (stereo unspecified) | > 10 µM | – | IC50 (FFLUC_HILL_SLOPE 14.9, FFLUC_R_SQUARED 0.741, read-out: LUCIFERASE INFECTION ASSAY - IC50): > 10 µM |
| CCn1c(C)nc2cc(C(=O)NNC(=O)c3cc(=O)[nH]c4ccccc34)ccc21 | > 10 µM | > 10 µM | – |
| COc1cc2c(cc1OC)C(c1cccs1)N(C(=O)Nc1cc(C)on1)CC2 (stereo unspecified) | 2.7 µM | – | IC50 (HEPG2TOX_HILL_SLOPE 0.982, HEPG2TOX_R_SQUARED 0.92, PBLUC_HILL_SLOPE 3.46, PBLUC_R_SQUARED 0.391, read-out: LUCIFERASE INFECTION ASSAY - IC50): 1.43 µM |
| C=S(=O)(NC(=O)c1ccc(C(F)(F)F)cc1)c1ccccc1 (stereo unspecified) | > 10.1 µM | > 10.1 µM | – |
| O=S(=O)(CCSc1ccc(C(F)(F)F)cn1)c1ccc(OC(F)(F)F)cc1 | > 7.65 µM | > 7.65 µM | – |
| Cc1ccc(/N=C/c2cc3ccccc3nc2Sc2ccc(C)cc2)cc1 | > 10 µM | > 10 µM | – |
| CC(C)Cn1c(N)c(C(=O)COC(=O)Cn2c(C(F)(F)F)nc3ccccc32)c(=O)n(C)c1=O | > 10 µM | > 10 µM | – |
| O=C1C(=C2SCCCS2)CC/C1=C\c1ccccc1 | 5.73 µM | – | IC50 (FFLUC_HILL_SLOPE 1.05, FFLUC_R_SQUARED 0.81, PBLUC_HILL_SLOPE 0.851, PBLUC_R_SQUARED 0.668, read-out: LUCIFERASE INFECTION ASSAY - IC50): 0.433 µM |
| Clc1ccc2c(c1)nnc1nnnn12 | 1.91 µM | 1.66 µM | – |
| O=C(Nc1ccc2nc(Cc3ccccc3)nn2c1)c1cccc(Cl)c1 | 1.48 µM | – | IC50 (HEPG2TOX_HILL_SLOPE 2.06, HEPG2TOX_R_SQUARED 0.967, PBLUC_HILL_SLOPE 11.3, PBLUC_R_SQUARED 0.609, read-out: LUCIFERASE INFECTION ASSAY - IC50): 1.22 µM |
| O=C(COc1ccc(F)cc1)Nc1ccc2c(=O)c3cccc(Cl)c3oc2c1 | > 8.3 µM | > 8.3 µM | – |
| O=C(/C=C/c1cn(-c2ccccc2)nc1-c1ccc(F)cc1)NCC1(N2CCCCC2)CCCCC1 | > 10 µM | > 10 µM | – |
| O=C(c1cccc(Cl)c1)c1cnc(Nc2cccc(C(F)(F)F)c2)[nH]1 | > 9.02 µM | 5.49 µM | – |
| Cc1c(C)c(C)c(S(=O)(=O)Nc2ccc3c[nH]nc3c2)c(C)c1C | > 10 µM | – | IC50 (HEPG2TOX_HILL_SLOPE 1.73, HEPG2TOX_R_SQUARED 0.711, PBLUC_HILL_SLOPE 1.55, PBLUC_R_SQUARED 0.469, read-out: LUCIFERASE INFECTION ASSAY - IC50): 4.27 µM |
| CCOc1ccc(S(=O)(=O)Nc2cc(Sc3ccc(C)cc3)c(O)c3ccccc23)cc1 | > 10 µM | – | IC50 (FFLUC_HILL_SLOPE 11.6, FFLUC_R_SQUARED 0.0239, HEPG2TOX_HILL_SLOPE 1.78, HEPG2TOX_R_SQUARED 0.0588, PBLUC_HILL_SLOPE 15.2, PBLUC_R_SQUARED 0.324, read-out: LUCIFERASE INFECTION ASSAY - IC50): 9.98 µM |
| COc1cc(/C=C(/C(=O)Nc2ccc(Cl)cc2)c2nc3ccccc3s2)ccc1OC(F)F | 3.33 µM | – | IC50 (FFLUC_HILL_SLOPE 4.93, FFLUC_R_SQUARED 0.384, HEPG2TOX_HILL_SLOPE 14.8, HEPG2TOX_R_SQUARED 0.909, PBLUC_HILL_SLOPE 5.39, PBLUC_R_SQUARED 0.576, read-out: LUCIFERASE INFECTION ASSAY - IC50): 2.21 µM |
| Cc1cc(C)n(-c2nc(-c3ccccc3)cc(N3CCCCCC3)n2)n1 | 7.45 µM | – | IC50 (PBLUC_HILL_SLOPE 3.96, PBLUC_R_SQUARED 0.269, read-out: LUCIFERASE INFECTION ASSAY - IC50): 4.28 µM |
| CCn1nc(C(=O)N2CCN(c3ccccc3)CC2)c2c1CCN(Cc1cc(C)c(OC)cc1C)C2 | > 6.77 µM | – | IC50 (HEPG2TOX_HILL_SLOPE 2.53, HEPG2TOX_R_SQUARED 0.945, PBLUC_HILL_SLOPE 5.03, PBLUC_R_SQUARED 0.659, read-out: LUCIFERASE INFECTION ASSAY - IC50): 4.44 µM |

| SMILES | IC90 | IC50 [1] | also measured |
| --- | --- | --- | --- |
| C/C(=C\c1ccco1)CN1CCc2c(c(C(=O)NCc3ccccn3)nn2CCc2ccccc2)C1 | > 6.85 µM | > 6.85 µM | – |
| CCN(CCC#N)c1ccc(/C=C2/C(=O)Nc3cc(Cl)ccc32)c(C)c1 | > 10 µM | > 10 µM | – |
| COc1cc(OC)cc(C(NS(=O)(=O)c2cc(C(F)(F)F)ccc2Cl)c2nccn2C)c1 (stereo unspecified) | > 10 µM | – | IC50 (PBLUC_HILL_SLOPE 9.29, PBLUC_R_SQUARED 0.399, read-out: LUCIFERASE INFECTION ASSAY - IC50): 8.07 µM |
| Cc1c(S(=O)(=O)c2ccc(Cl)cc2)csc1NC(=O)Nc1cc(C2CC2)n[nH]1 | > 7.55 µM | – | IC50 (HEPG2TOX_HILL_SLOPE 0.224, HEPG2TOX_R_SQUARED 0.199, PBLUC_HILL_SLOPE 2.99, PBLUC_R_SQUARED 0.447, read-out: LUCIFERASE INFECTION ASSAY - IC50): 4.79 µM |
| COc1cccc(/N=C2\SCC(C)(C)N2C(=O)c2ccccc2OCc2ccccc2C)c1 | > 10 µM | – | IC50 (HEPG2TOX_HILL_SLOPE 1.35, HEPG2TOX_R_SQUARED 0.857, read-out: LUCIFERASE INFECTION ASSAY - IC50): > 10 µM |
| CC(C)(C)OC(=O)N1CCc2nc(NC(=O)c3ccc(Cl)cc3F)sc2C1 | 8.96 µM | – | IC50 (HEPG2TOX_HILL_SLOPE 2.37, HEPG2TOX_R_SQUARED 0.812, PBLUC_HILL_SLOPE 3.49, PBLUC_R_SQUARED 0.436, read-out: LUCIFERASE INFECTION ASSAY - IC50): 4.77 µM |
| CN(NS(=O)(=O)c1ccc(Cl)cc1)c1cnn(C)c(=O)c1Cl | > 9.09 µM | > 9.09 µM | – |
| COc1ccc(/C=C/c2nc3cc(-c4nc5ccccc5[nH]4)ccc3s2)cc1 | 4.48 µM | 1.84 µM | – |
| O=S(=O)(c1ccccc1)c1nc(/C=C/c2ccccc2)oc1NCc1ccco1 | > 10 µM | – | IC50 (PBLUC_HILL_SLOPE 2.89, PBLUC_R_SQUARED 0.0298, read-out: LUCIFERASE INFECTION ASSAY - IC50): 5.62 µM |
| NS(=O)(=O)c1ccc(N/N=C/c2cn(-c3ccccc3)nc2-c2cccs2)c([N+](=O)[O-])c1 | > 10 µM | > 10 µM | – |
| CC1c2ccsc2CCN1C(=S)NC(=O)c1cccs1 (stereo unspecified) | > 10.2 µM | – | IC50 (FFLUC_HILL_SLOPE 16.3, FFLUC_R_SQUARED 0.288, HEPG2TOX_HILL_SLOPE 6.88, HEPG2TOX_R_SQUARED 0.689, PBLUC_HILL_SLOPE 3.81, PBLUC_R_SQUARED 0.3, read-out: LUCIFERASE INFECTION ASSAY - IC50): 6.21 µM |
| CN(Cc1ccc2c(c1)OCCO2)C(=O)c1ccc(NC(=O)C23CC4CC(CC(C4)C2)C3)cc1 | > 10 µM | – | IC50 (PBLUC_HILL_SLOPE 12.4, PBLUC_R_SQUARED 0.0833, read-out: LUCIFERASE INFECTION ASSAY - IC50): > 10 µM |
| O=C(c1cccs1)c1c(-c2ccccc2)cc2ccccn12 | 3.73 µM | – | IC50 (HEPG2TOX_HILL_SLOPE 2.42, HEPG2TOX_R_SQUARED 0.887, PBLUC_HILL_SLOPE 12.4, 11.2, PBLUC_R_SQUARED 0.720, 0.734, read-out: LUCIFERASE INFECTION ASSAY - IC50): 3.1 µM |
| COc1cc(CNc2ncnc3sc(-c4ccccc4)cc23)ccn1 | > 10 µM | 8.74 µM | – |
| Cc1ccc(COC(=O)c2cccc3c(=O)c(C)c(-c4ccccc4)oc23)cc1 | > 10 µM | > 10 µM | – |
| Cc1occc1C(=O)NN=CC1C(=O)N(Cc2ccccc2)C(=O)c2ccccc21 (stereo unspecified) | 7.7 µM | – | IC50 (FFLUC_HILL_SLOPE 77.8, FFLUC_R_SQUARED 0.432, HEPG2TOX_HILL_SLOPE 1.95, HEPG2TOX_R_SQUARED 0.861, PBLUC_HILL_SLOPE 6.12, PBLUC_R_SQUARED 0.278, read-out: LUCIFERASE INFECTION ASSAY - IC50): 5.38 µM |
| CCCCNC(=O)c1c(NC(=O)c2ccccc2C(F)(F)F)nc2ccccn12 | 8.11 µM | – | IC50 (HEPG2TOX_HILL_SLOPE 6.6, HEPG2TOX_R_SQUARED 0.306, PBLUC_HILL_SLOPE 21.5, PBLUC_R_SQUARED 0.838, read-out: LUCIFERASE INFECTION ASSAY - IC50): 7.33 µM |
| CN(C)CCn1c(=O)n(Cc2ccccc2)c(=O)c2c3c(sc21)CCCCC3 | > 8.3 µM | – | IC50 (PBLUC_HILL_SLOPE 10.5, PBLUC_R_SQUARED 0.0293, read-out: LUCIFERASE INFECTION ASSAY - IC50): 7.95 µM |
| O=C(Cn1cnc2cc(N3CCOCC3)c([N+](=O)[O-])cc2c1=O)c1ccc(C2CCCCC2)cc1 | > 10 µM | > 10 µM | – |
| CCC(C)NC(=O)c1c(NC(=O)C2CCCC2)nc2ccc(C)cn12 (stereo unspecified) | > 9.64 µM | – | IC50 (FFLUC_HILL_SLOPE 1.17, FFLUC_R_SQUARED 0.173, read-out: LUCIFERASE INFECTION ASSAY - IC50): > 9.64 µM |
| COc1cccc(CN2CCN3C=C(C(=O)Nc4ccc(C(C)C)cc4)OC3=NC2=O)c1 | 9.3 µM | – | IC50 (HEPG2TOX_HILL_SLOPE 3.72, HEPG2TOX_R_SQUARED 0.984, PBLUC_HILL_SLOPE 3.98, PBLUC_R_SQUARED 0.662, read-out: LUCIFERASE INFECTION ASSAY - IC50): 5.35 µM |
